From the NIST ThermoML archive (doi:10.1016/j.jct.2009.05.009)
Numbers after ± are expanded uncertainties.

Assay: xn = mol fraction of the nth substance listed
Conditions: 101.3 kPa, Liquid, Vibrating tube method

CCOS(=O)(=O)[O-].CCn1cc[n+](C)c1 [1-ethyl-3-methylimidazolium ethyl sulfate] + O
mass density [kg/m3]
Conditions	318.15 K	323.15 K	328.15 K	333.15 K	338.15 K	343.15 K
x2 = 0	–	1224.1 ± 2.3	1221.1 ± 2.3	1218.1 ± 2.3	1215.1 ± 2.3	1212 ± 2.3
x2 = 0.0514	–	1223 ± 2.3	1220 ± 2.3	1216.9 ± 2.3	1213.8 ± 2.3	1210.7 ± 2.3
x2 = 0.13	–	1221.3 ± 2.2	1218.2 ± 2.2	1215.2 ± 2.2	1212.1 ± 2.2	1208.9 ± 2.2
x2 = 0.1783	–	1220.1 ± 2.2	1216.9 ± 2.2	1213.9 ± 2.2	1210.9 ± 2.2	1207.8 ± 2.2
x2 = 0.2168	–	1219.1 ± 2.2	1216 ± 2.2	1212.9 ± 2.2	1209.9 ± 2.2	1206.7 ± 2.2
x2 = 0.2642	–	1217.6 ± 2.2	1214.6 ± 2.2	1211.5 ± 2.2	1208.4 ± 2.2	1205.3 ± 2.1
x2 = 0.3054	–	1216.3 ± 2.1	1213.2 ± 2.1	1210.1 ± 2.1	1207 ± 2.1	1203.9 ± 2.1
x2 = 0.3568	–	1214.4 ± 2.1	1211.2 ± 2.1	1208.2 ± 2.1	1205.1 ± 2.1	1201.9 ± 2.1
x2 = 0.4008	–	1212.4 ± 2.1	1209.3 ± 2.1	1206.2 ± 2.1	1203.1 ± 2.1	1200 ± 2.1
x2 = 0.4613	1212.4 ± 2.1	1209.3 ± 2.1	1206.1 ± 2.1	1203.1 ± 2.1	1200 ± 2.1	1196.8 ± 2.1
x2 = 0.5002	1210.1 ± 2.2	1206.9 ± 2.2	1203.8 ± 2.2	1200.7 ± 2.2	1197.6 ± 2.2	1194.3 ± 2.2
x2 = 0.5584	1206 ± 2.2	1202.8 ± 2.2	1199.6 ± 2.2	1196.4 ± 2.2	1193.2 ± 2.2	1189.9 ± 2.2
x2 = 0.6124	1201.1 ± 2.3	1197.8 ± 2.3	1194.6 ± 2.3	1191.4 ± 2.3	1188.1 ± 2.3	1184.7 ± 2.3
x2 = 0.6698	1194.3 ± 2.4	1191 ± 2.4	1187.7 ± 2.4	1184.3 ± 2.4	1180.9 ± 2.5	1177.4 ± 2.5
x2 = 0.7125	1187.6 ± 2.7	1184.3 ± 2.7	1181 ± 2.8	1177.5 ± 2.8	1173.9 ± 2.7	1170.4 ± 2.7
x2 = 0.7635	1177.2 ± 3.1	1173.7 ± 3.1	1170.2 ± 3.1	1166.8 ± 3.1	1163.5 ± 3.1	1159.9 ± 3.1
x2 = 0.8006	1167 ± 3.9	1163.5 ± 3.9	1160 ± 3.9	1156.6 ± 3.9	1153.2 ± 3.9	1149.5 ± 3.9
x2 = 0.8497	1148.9 ± 5	1145.2 ± 5	1141.6 ± 5	1138.3 ± 5	1134.9 ± 5	1131.3 ± 5
x2 = 0.8963	1123 ± 11	1119.6 ± 11	1116.4 ± 11	1112.9 ± 11	1109.3 ± 11	1106 ± 11
